From patent US20220347175A1, “PYRIDAZINONE DERIVATIVE” (Sumitomo Dainippon Pharma Co., Ltd., priority 2018, published 2022)

How the values were obtained:
[1] = biological target: T1, human Nav1.1 (Homo sapiens, UniProt P35498); test: Amplification of Nav1.1-derived voltage-dependent sodium current (Nav1.1 current), cell line stably expressing human Nav1.1, automated patch clamp; type: cell-based; conditions: for activation at 1 µM: compound 1 μmol/L; for activation at 1 µM / activation at 10 µM: read-out: Nav1.1 current amplification rate (%)
T1 construct: host or cells: HEK293
How it was run: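 Amplification rate (%) is 100 × post-compound/pre-compound Nav1.1 peak current or AUC, minus 100. Ramp-evoked sodium currents were recorded by automated patch clamp in a human Nav1.1 HEK293 stable line, restricted to cells exceeding 500 pA, with compounds added in extracellular solution containing 1% DMSO.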

[2] = biological target: T2, human Nav1.5 (Homo sapiens, UniProt Q14524); test: Amplification of Nav1.5-derived voltage-dependent sodium current (Nav1.5 current), cell line stably expressing human Nav1.5, automated patch clamp; type: cell-based; conditions: for activation at 1 µM: compound 1 μmol/L; for activation at 1 µM / activation at 10 µM: read-out: Nav1.5 current amplification rate (%)
T2 construct: expressed in transfected cells; host or cells: CHO-K1 (T-REx System, ThermoFisher Scientific)

[3] = HEK293 stably expressing human Nav1.1
[4] = CHO-K1 stably expressing human Nav1.5
[5] = compound 3 μmol/L, HEK293 stably expressing human Nav1.1
[6] = compound 3 μmol/L, CHO-K1 stably expressing human Nav1.5
[7] = 10 μmol/L compound, change of the area under the curve of Nav1.1 current (Test Result 1)
[8] = 10 μmol/L compound, change of the area under the curve of Nav1.5 current (Test Result 1)

T2 sequence (Q14524 1-2015 isoform Q14524-2): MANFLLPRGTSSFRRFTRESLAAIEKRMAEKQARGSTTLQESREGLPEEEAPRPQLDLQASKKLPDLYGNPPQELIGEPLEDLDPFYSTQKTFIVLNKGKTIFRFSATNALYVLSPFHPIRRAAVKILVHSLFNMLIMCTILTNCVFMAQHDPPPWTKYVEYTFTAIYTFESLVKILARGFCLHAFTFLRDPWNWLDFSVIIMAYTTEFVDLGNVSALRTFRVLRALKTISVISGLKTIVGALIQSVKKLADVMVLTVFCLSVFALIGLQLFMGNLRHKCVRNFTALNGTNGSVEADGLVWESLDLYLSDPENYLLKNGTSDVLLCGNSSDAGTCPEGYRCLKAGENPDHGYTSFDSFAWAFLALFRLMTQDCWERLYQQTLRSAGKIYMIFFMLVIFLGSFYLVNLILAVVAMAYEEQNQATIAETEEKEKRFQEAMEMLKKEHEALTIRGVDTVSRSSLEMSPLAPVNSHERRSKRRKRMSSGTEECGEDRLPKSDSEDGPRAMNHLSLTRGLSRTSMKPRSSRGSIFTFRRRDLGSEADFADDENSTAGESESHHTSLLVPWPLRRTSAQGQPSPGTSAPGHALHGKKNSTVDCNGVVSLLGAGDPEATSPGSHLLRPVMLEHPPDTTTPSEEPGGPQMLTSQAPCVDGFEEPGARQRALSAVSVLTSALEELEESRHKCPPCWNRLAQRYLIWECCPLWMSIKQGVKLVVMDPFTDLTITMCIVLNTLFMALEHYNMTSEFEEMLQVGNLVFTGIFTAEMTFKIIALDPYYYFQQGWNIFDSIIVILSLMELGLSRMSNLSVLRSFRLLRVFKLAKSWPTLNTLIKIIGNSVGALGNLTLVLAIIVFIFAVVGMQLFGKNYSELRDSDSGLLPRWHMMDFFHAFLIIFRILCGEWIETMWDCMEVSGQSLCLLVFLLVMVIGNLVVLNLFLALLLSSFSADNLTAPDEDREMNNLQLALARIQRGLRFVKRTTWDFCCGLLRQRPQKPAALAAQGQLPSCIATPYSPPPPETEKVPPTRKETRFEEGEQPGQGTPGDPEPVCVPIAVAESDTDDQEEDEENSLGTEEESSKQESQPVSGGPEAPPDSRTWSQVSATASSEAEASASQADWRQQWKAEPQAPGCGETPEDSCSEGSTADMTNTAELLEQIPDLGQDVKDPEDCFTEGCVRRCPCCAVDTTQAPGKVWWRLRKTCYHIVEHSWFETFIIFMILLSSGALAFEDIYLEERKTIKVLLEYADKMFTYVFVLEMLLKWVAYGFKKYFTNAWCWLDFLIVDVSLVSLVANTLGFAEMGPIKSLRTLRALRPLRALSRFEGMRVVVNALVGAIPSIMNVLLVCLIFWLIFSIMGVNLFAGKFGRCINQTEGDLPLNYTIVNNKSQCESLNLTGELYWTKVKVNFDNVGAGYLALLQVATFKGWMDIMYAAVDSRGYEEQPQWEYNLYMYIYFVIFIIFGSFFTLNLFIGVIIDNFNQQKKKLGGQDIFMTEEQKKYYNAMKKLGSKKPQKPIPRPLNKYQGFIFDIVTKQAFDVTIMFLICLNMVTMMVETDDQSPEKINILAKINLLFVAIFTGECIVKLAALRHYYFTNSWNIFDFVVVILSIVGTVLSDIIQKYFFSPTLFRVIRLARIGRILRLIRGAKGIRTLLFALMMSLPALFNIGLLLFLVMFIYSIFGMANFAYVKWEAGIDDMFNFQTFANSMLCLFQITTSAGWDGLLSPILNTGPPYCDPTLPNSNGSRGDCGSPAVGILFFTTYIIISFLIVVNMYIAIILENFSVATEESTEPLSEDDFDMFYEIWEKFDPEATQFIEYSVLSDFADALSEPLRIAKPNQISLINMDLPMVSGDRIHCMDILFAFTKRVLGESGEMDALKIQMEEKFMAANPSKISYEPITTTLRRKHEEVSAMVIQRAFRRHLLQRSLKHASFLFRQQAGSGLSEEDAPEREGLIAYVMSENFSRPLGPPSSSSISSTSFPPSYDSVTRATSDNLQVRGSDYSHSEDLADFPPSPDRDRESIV

With `Cc1ncc(-c2cccc3c2CCN3C(=O)Cn2nc(C3=CCCCC3)ccc2=O)cn1` [Example 518] the activation at 1 µM [1, 3] was 344% and the activation at 1 µM [2, 4] was 9%.

In the case of `CC1CC=C(c2ccc(=O)n(CC(=O)Nc3cccc(N4CCOCC4)c3F)n2)CC1` (racemic) [Example 322], the “Nav1.1 current amplification rate (%)” value [1, 5] is reported as 115% and the “Nav1.5 current amplification rate (%)” value [2, 6] is reported as 18%.

For `O=C(Cn1nc(N2CC3(CCCCC3)C2)ccc1=O)Nc1ccn2ccnc2c1` [Example 179], the activation at 10 µM [1, 7] was 27% and the activation at 10 µM [2, 8] was -1%.

Compound `Cc1cc(=O)n(CC(=O)Nc2ccc3ocnc3c2)nc1N1CCC(C)CC1` [Example 201] has an activation at 10 µM [1, 7] of 139% and an activation at 10 µM [2, 8] of 1%.

For `CC1CC=C(c2ccc(=O)n(CC(=O)Nc3cccc4nccn34)n2)CC1` (racemic) [Example 255], the “Nav1.1 current amplification rate (%)” value [1, 7] was 32% and the “Nav1.5 current amplification rate (%)” value [2, 8] was 15%.

`Cc1ccc(-c2ccc(=O)n(CC(=O)N3CCc4c(C5CN(C6COC6)C5)cccc43)n2)cc1` [Example 516] gave an activation at 1 µM [1, 3] of 130% and an activation at 1 µM [2, 4] of 13%.

In the case of `CC1CC=C(c2ccc(=O)n(CC(=O)N3C[C@H](C)N(c4cccnc4)C[C@H]3C)n2)CC1` (some centres unmarked) [Example 417], the “Nav1.1 current amplification rate (%)” value [1, 5] is reported as 23% and the “Nav1.5 current amplification rate (%)” value [2, 6] is reported as 1%.

`COc1ccc2c(c1)CCN2C(=O)Cn1nc(N2CCC(C)CC2)ccc1=O` [Example 183] gave an activation at 10 µM [1, 7] of 95% and an activation at 10 µM [2, 8] of 0%.

`COc1cc(C2=CCC(C)CC2)nn(CC(=O)Nc2ccn3ccnc3c2)c1=O` (centres unmarked) [Example 463] was tested, and the “Nav1.1 current amplification rate (%)” value [1, 7] was 218% and the “Nav1.5 current amplification rate (%)” value [2, 8] was 9%.

`CC1(C)CC=C(c2ccc(=O)n(CC(=O)Nc3ccn4ncnc4c3)n2)CC1` [Example 429, 2-[3-(4,4-dimethylcyclohex-1-en-1-yl)-6-oxopyridazin-1(6H)-yl]-N-([1,2,4]triazolo[1,5-a]pyridin-7-yl)acetamide] gave an activation at 1 µM [1, 3] of 101% and an activation at 1 µM [2, 4] of 28%.

For `COc1cccc2c1CCN2C(=O)Cn1nc(C2=CCC(C)(C)CC2)ccc1=O` [Example 431], the “Nav1.1 current amplification rate (%)” value [1, 7] was 11% and the “Nav1.5 current amplification rate (%)” value [2, 8] was 3%.

`CN1CCN(c2cccc3c2CCN3C(=O)Cn2nc(N3CCC(C)(C)CC3)ccc2=O)CC1` [Example 223] was tested, and the activation at 10 µM [1, 7] was 46% and the activation at 10 µM [2, 8] was 0%.

Compound `N#Cc1cc(NC(=O)Cn2nc(C3=CCC(F)(F)CC3)ccc2=O)ccn1` [Example 115] has an activation at 10 µM [1, 7] of 56% and an activation at 10 µM [2, 8] of 12%.

`CC1(C)CCN(c2ccc(=O)n(CC(=O)N3CCc4c(-c5ccnnc5)cccc43)n2)CC1` [Example 235] gave an activation at 1 µM [1, 3] of 198% and an activation at 1 µM [2, 4] of 7%.

In the case of `CC1CCN(c2ccc(=O)n(CC(=O)Nc3ccc4oc(=O)[nH]c4c3)n2)CC1` [Example 82], the “Nav1.1 current amplification rate (%)” value [1, 7] is reported as 121% and the “Nav1.5 current amplification rate (%)” value [2, 8] is reported as 5%.

`O=C(Cn1nc(C2=CCC(F)(F)CC2)ccc1=O)Nc1cncc(C(F)(F)F)c1` [Example 112] gave an activation at 10 µM [1, 7] of 46% and an activation at 10 µM [2, 8] of 9%.

`CC1CCN(c2ccc(=O)n(CC(=O)N3CCc4cc(N5CCCC5=O)ccc43)n2)CC1` [Example 219] was tested, and the activation at 10 µM [1, 7] was 97% and the activation at 10 µM [2, 8] was 12%.

For `CC1CCN(c2ccc(=O)n(CC(=O)Nc3ccc(C(=O)N4CCCC4)cc3)n2)CC1` [Example 79], the “Nav1.1 current amplification rate (%)” value [1, 7] was 165% and the “Nav1.5 current amplification rate (%)” value [2, 8] was 4%.

With `Cc1cc(NC(=O)Cn2nc(N3CCC(C)CC3)ccc2=O)cc2ncoc12` [Example 96] the “Nav1.1 current amplification rate (%)” value [1, 7] was 105% and the “Nav1.5 current amplification rate (%)” value [2, 8] was 7%.

`O=C(Cn1nc(C2=CCCC2)ccc1=O)N1CCc2c(-c3ccnnc3)cccc21` [Example 523] showed an activation at 1 µM [1, 3] of 129% and an activation at 1 µM [2, 4] of 5%.

`COc1cc(C2=CCC(C)CC2)nn(CC(=O)Nc2ccc3ocnc3c2)c1=O` (centres unmarked) [Example 449] was tested, and the “Nav1.1 current amplification rate (%)” value [1, 7] was 250% and the “Nav1.5 current amplification rate (%)” value [2, 8] was 12%.

With `Cc1ccc(-c2ccc(=O)n(CC(=O)N3CCc4cc(N5CCOCC5)ccc43)n2)cc1` [Example 158] the “Nav1.1 current amplification rate (%)” value [1, 7] was 122% and the “Nav1.5 current amplification rate (%)” value [2, 8] was 30%.
